Assay results: patent publication US12337003B2, “Pharmaceutical compositions for combination therapy” (Intercept Pharmaceuticals, Inc., priority 2015, dated 2025)

Key:
[1] = tested on: fibrosis induced by common bile duct ligation in mice; test: Bile duct ligation (BDL) model, Sirius-red staining of liver sections; assay type: in vivo, C57BL/6 mice; settings: mean ± SD, OCA 5 mg/kg and/or atorvastatin 10 mg/kg orally once daily day 0 to day 6
Method: This experiment was performed to evaluate the effects of OCA and atorvastatin alone, and in combination, on fibrosis induced by common bile duct ligation in mice.
Male C57BL/6 mice (6 weeks of age) were obtained from Japan SLC. The animals were maintained in a specific pathogen free facility under controlled conditions of temperature (23±2° C.), humidity (45±10%), lighting (12-hour artificial light and dark cycles; light from 8:00 to 20:00), and air exchange (air exchange rate: more than 40 times/hour). A high pressure (20±4 Pa) was maintained in the experimental room to prevent contamination of the facility. The animals were housed in KN-600 (Natsume Seisakusho, Japan) with a maximum of 6 mice per cage. […]
Viability, clinical signs and behavior were monitored daily. Body weight was recorded daily during the treatment period. Food consumption was measured twice weekly per cage during the treatment period. […]
To visualize collagen deposition, Bouin's-fixed left lateral liver sections were stained using picro-Sirius red solution (Waldeck, Germany). For quantitative analysis of the fibrosis area, bright field images of Sirius red-stained sections were captured around the central vein using a digital camera (DFC295; Leica, Germany) at 100-fold magnification, and the positive areas in 5 fields/section were measured using ImageJ software (National Institute of Health, USA). […]

[2] = tested on: leukocyte extravasation signaling; test: Hepatic gene expression profiling (RNA sequencing, pathway analysis) in APOE*3Leiden.CETP mice; assay type: in vivo
Method: (§1) This experiment was performed to evaluate the effects of OCA and fenofibrate, alone or in combination, on the development of diet induced NASH and liver fibrosis in APOE*3Leiden.CETP transgenic mice. Hepatic gene expression profiling and subsequent pathway analysis were performed to determine whether the combination regulates novel genes not regulated by either monotherapy treatment, and/or more strongly regulates genes also impacted by the monotherapy.
(§2) Mice were fed a high fat chow (HFC) diet for […]. After 15 weeks on the HFC diet, HFC mice were matched into 7 groups based on age, body weight, plasma cholesterol and triglycerides after 4 h fasting. Mice were treated with of OCA and fenofibrate, alone or in combination beginning at week 15 and sacrificed at week 25 in an unfasted state. One week before sacrifice, mice were labeled with D20, by i.p. injection of a bolus of D20 and subsequent addition of 4% D20 to the drinking water. Plasma (EDTA) was obtained by heart puncture and stored at −70° C. The liver was weighed and 4 pieces of liver were isolated: 1 piece (medial lobe) was fixed in 10% formalin (for NASH and fibrosis histology) and 3 pieces (sinister lobe) were snap-frozen in liquid N2 and stored individually at −70° C.
Nucleic acid extraction was performed as described previously in detail (Verschuren et al., 2014). Briefly, total RNA was extracted from individual liver samples using glass beads and RNAzol (Campro Scientific, Veenendaal, The Netherlands). RNA concentration and quality was determined using the Fragment Analyzer (Advanced Analytical Technologies, USA) and the RNA 6000 Nano Lab-on-a-Chip kit and a Bioanalyzer 2100 (Agilent Technologies, Amstelveen, The Netherlands). All samples met the quality requirements and were used in the RNA sequencing procedure.
The NEBNext Ultra Directional RNA library Prep Kit for Illumina was used to process the samples. The sample preparation was performed according to the protocol “NEBNext Ultra Directional RNA Library Prep Kit for Illumina” (NEB #E7420S/L). Briefly, mRNA was isolated from total RNA using oligo-dT magnetic beads. After fragmentation of the mRNA, a cDNA synthesis was performed. This was used for ligation of sequencing adapters and PCR amplification of the resulting product. The quality and yield after sample preparation was measured with the Fragment Analyzer (Advanced Analytical Technologies, USA). The size of the resulting products was consistent with the expected size distribution (a broad peak between 300-500 bp).
Clustering and DNA sequencing using the Illumina […] was performed according manufacturer's protocols. Data was generated using single-end read sequencing protocol obtaining approx. 15 million reads per sample and 75 bp per read. Image analysis, base calling, and quality check was performed with the Illumina data analysis pipeline RTA v2.4.11 to generate the raw data (*.fastq-files).
The reads were mapped to the reference sequence Mus musculus GRCm38.p3 using a short read aligner based on Burrows-Wheeler Transform. The default mismatch rate of 2% (3 mismatches in a read of 150 bases) was used. Based on the mapped read locations in the alignment files (*.bam-files) the frequency of how often a read was mapped on a transcript was determined. The counts were saved to count-files, which served as input for downstream mRNA-seq differential expression analysis. The read counts were loaded into the DESeq package, a statistical package within the R platform. […]

[3] = tested on: APOE*3Leiden.CETP transgenic mice on high fat diet; test: Diet induced NASH in APOE*3Leiden.CETP mice, hepatic inflammation score; assay type: in vivo; settings: for Inflammation (# of inflammatory cell foci): in high fat diet
Method: as §1
Male APOE*3Leiden.CETP transgenic mice (9-21 weeks old) were obtained and housed 2-5 mice per cage. The mice were fed a high fat diet containing 24% lard and 1% (w/w) cholesterol. The run in period was 15 weeks on the high fat diet. At week 16, mice were matched based on age, body weight, plasma cholesterol and triglycerides after 4 h fasting.
• Mice (n=15) were fed a high fat diet during the run in weeks 0 to 14. Group 2: HFC control group • Mice (n=15) were fed a high fat diet from weeks 0 to 24. Group 3: HFC+OCA • Mice (n=15) were fed a high fat diet supplemented with OCA at a dose of 10 mg/kg once daily from week 16 to 24. Group 4: HFC+low dose fenofibrate • Mice (n=15) were fed a high fat diet supplemented with fenofibrate at a dose of 10 mg/kg once daily from week 16 to 24. Group 5: HFC+high dose fenofibrate • Mice (n=15) were fed a high fat diet supplemented with fenofibrate at a dose of 40 mg/kg once daily from week 16 to 24. Group 6: HFC+OCA+low dose fenofibrate • Mice (n=15) were fed a high fat diet supplemented with OCA at a dose of 10 mg/kg once daily and fenofibrate at a dose of 10 mg/kg once daily from week 16 to 24. Group 7: HFC+OCA+high dose fenofibrate • Mice (n=15) were fed a high fat diet supplemented with OCA at a dose of 10 mg/kg once daily and fenofibrate at a dose of 40 mg/kg once daily from week 16 to 24. Group 8: Chow control group • Mice (n=8) were feed chow from week 0 to 24. Study Design
as §2
Inflammation is a key feature of NASH. Inflammation was categorized according to the procedure by Liang et al., PlosOne 2014 Dec. 9(12) and scored by quantitatively analyzing the number of inflammatory cells aggregates. In particular, the level of inflammation was evaluated by counting the number of inflammatory foci per field using a 100× magnification (view size of 3.1 mm2; average of five different fields).

[4] = high dose fenofibrate 40 mg/kg, alone or with OCA 10 mg/kg

Compound	Sirius red-positive area (%) [1] [%]	number of uniquely regulated genes ([2]; Venn diagram, OCA 10 mg/kg, fenofibrate 10 mg/kg, combination)	enrichment analysis of canonical (inflammatory) pathways ([2]; liver mRNA, OCA 10 mg/kg and/or low dose fenofibrate vs HFC)	Inflammation (# of inflammatory cell foci) ([3]; OCA 10 mg/kg and/or low dose fenofibrate 10 mg/kg)	reduction in inflammation [3, 4] [%]	Inflammation (# of inflammatory cell foci) [3, 4]
CC(C)c1c(C(=O)Nc2ccccc2)c(-c2ccccc2)c(-c2ccc(F)cc2)n1CC[C@@H](O)C[C@@H](O)CC(=O)O [ATO, atorvastatin, reference compound]	2.31 ± 0.63					
CC(C)OC(=O)C(C)(C)Oc1ccc(C(=O)c2ccc(Cl)cc2)cc1 [fenofibrate]		92	no effect	22.0 ± 15.6	−74	7.1 ± 5.9
